“And” between values parts separate entries of the source, which are not always exact repeats. Equal values may be shown once. ± gives the uncertainty stated by the source.
Columns and labels:
[1] = xn = mol fraction of the nth substance listed

C1C[C@@H]2[C@H]3CC[C@H](C3)[C@@H]2C1
viscosity
Settings	293.15 K	298.15 K	303.15 K	308.15 K
100 kPa	2.974 ± 0.065 mPa·s and 3.07 ± 0.31 mPa·s	2.785 ± 0.025 mPa·s and 2.694 ± 0.059 mPa·s	2.535 ± 0.023 mPa·s and 2.454 ± 0.054 mPa·s	2.243 ± 0.049 mPa·s
101 kPa	–	2.77 ± 0.042 mPa·s	–	–
101.33 kPa	–	2.769 ± 0.17 mPa·s	–	2.283 ± 0.14 mPa·s

CC(=O)C=C(C)C
Settings	viscosity [mPa·s]
298.15 K, 101 kPa	0.876 ± 0.011

CC12CCC(CC1)C(C)(C)O2
101 kPa
Settings	viscosity [mPa·s]
298.15 K	2.6 ± 0.05
303.15 K	2.066 ± 0.062
308.15 K	1.856 ± 0.056
313.15 K	1.676 ± 0.051
318.15 K	1.73 ± 0.04

CCC(=O)O
viscosity
Settings	293.15 K	298.15 K	303.15 K	313.15 K	318.15 K	323.15 K
101 kPa	1.1 ± 0.01 mPa·s and 1.07 ± 0.023 mPa·s and 1.102 ± 0.028 mPa·s	–	–	–	–	0.75 ± 0.01 mPa·s
101.33 kPa	1.103 ± 0.054 mPa·s and 1.156 ± 0.012 mPa·s and 1.101 ± 0.03 mPa·s	1.03 ± 0.05 mPa·s	0.96 ± 0.05 mPa·s and 0.944 ± 0.026 mPa·s	0.8453 ± 0.043 mPa·s and 0.901 ± 0.009 mPa·s and 0.84 ± 0.04 mPa·s	0.783 ± 0.021 mPa·s	0.8102 ± 0.041 mPa·s

CCC(C)c1ccccc1 (stereo unspecified)
102 kPa
Settings	viscosity [mPa·s]
293.15 K	0.932 ± 0.021
303.15 K	0.812 ± 0.021
313.15 K	0.712 ± 0.021
323.15 K	0.632 ± 0.021

CCCCCCCCCCCCC
viscosity
Settings	293.15 K	298.15 K	308.15 K	318.15 K	323.15 K
100 kPa	1.8 ± 0.08 mPa·s and 1.803 mPa·s	1.71 ± 0.037 mPa·s	1.428 ± 0.031 mPa·s and 1.319 ± 0.13 mPa·s	1.215 ± 0.026 mPa·s	1.124 ± 0.024 mPa·s and 1.1 ± 0.05 mPa·s and 1.104 mPa·s
103 kPa	–	1.63 ± 0.042 mPa·s	1.356 ± 0.042 mPa·s	1.146 ± 0.041 mPa·s	–

CCCCCCCN
Settings	viscosity [mPa·s]
303.15 K, 101 kPa	0.8789 ± 0.0074

CCCCN(CCO)CCCC
Settings	viscosity [mPa·s]
303.15 K, 100 kPa	4.6

CCCCN(CCO)CCO
101 kPa
Settings	viscosity [mPa·s]
303.15 K	41.29 ± 0.6
308.15 K	31.59 ± 0.49
313.15 K	24.47 ± 0.37
318.15 K	19.39 ± 0.29
323.15 K	15.47 ± 0.25

CCCC[n+]1ccc(C)cc1.F[B-](F)(F)F
101 kPa
Settings	viscosity [mPa·s]
298.15 K	196.2 ± 73
313.15 K	80.85 ± 11
323.15 K	50.22 ± 1.4

CNN
Settings	viscosity [mPa·s]
293.15 K, 101.3 kPa	0.96 ± 0.03

Cc1ccccc1Cl
viscosity
Settings	298.15 K	303.15 K	308.15 K	313.15 K	318.15 K
100 kPa	0.971 ± 0.059 mPa·s	0.886 ± 0.05 mPa·s	0.808 ± 0.05 mPa·s and 0.857 ± 0.052 mPa·s	0.728 ± 0.05 mPa·s	0.642 ± 0.05 mPa·s and 0.763 ± 0.046 mPa·s
101 kPa	–	0.886 ± 0.023 mPa·s	0.808 ± 0.022 mPa·s	0.741 ± 0.012 mPa·s and 0.728 ± 0.02 mPa·s	0.642 ± 0.019 mPa·s

ClCCCCCl
101 kPa
Settings	viscosity [mPa·s]
298.15 K	1.319 ± 0.012
303.15 K	1.218 ± 0.011
308.15 K	1.128 ± 0.011
313.15 K	1.043 ± 0.0099

NN
viscosity [mPa·s]
Settings	293.15 K	303 K	313 K
101 kPa	–	0.85 ± 0.027	0.75 ± 0.024
101.3 kPa	0.94 ± 0.03	–	–

Nc1cccc(Cl)c1
101 kPa
Settings	viscosity [mPa·s]
298.15 K	3.495 ± 0.093
303.15 K	3.256 ± 0.83

CCC(N)C(=O)[O-].[Na+] (stereo unspecified) + O
viscosity [mPa·s], [1], 101.3 kPa
Settings	x1 = 0.009	x1 = 0.018	x1 = 0.029	x1 = 0.039	x1 = 0.05	x1 = 0.062
303.15 K	1.034 ± 0.066	1.36 ± 0.083	1.815 ± 0.11	2.492 ± 0.17	3.501 ± 0.23	4.954 ± 0.26
308.15 K	0.924 ± 0.059	1.217 ± 0.072	1.595 ± 0.096	2.167 ± 0.14	3.005 ± 0.19	4.223 ± 0.23
313.15 K	0.836 ± 0.052	1.093 ± 0.063	1.417 ± 0.083	1.91 ± 0.12	2.608 ± 0.16	3.646 ± 0.2
318.15 K	0.76 ± 0.046	0.98 ± 0.055	1.27 ± 0.073	1.695 ± 0.1	2.295 ± 0.14	3.173 ± 0.17
323.15 K	0.697 ± 0.042	0.9 ± 0.049	1.143 ± 0.063	1.516 ± 0.091	2.029 ± 0.12	2.777 ± 0.14

CCCCN(CCO)CCO + O
viscosity [mPa·s], [1], 101 kPa
Settings	303.15 K	308.15 K	313.15 K	318.15 K	323.15 K
x1 = 0.0501	3.144 ± 0.13	2.695 ± 0.12	2.335 ± 0.12	2.041 ± 0.11	1.795 ± 0.11
x1 = 0.0999	6.924 ± 0.2	5.705 ± 0.17	4.763 ± 0.16	4.027 ± 0.14	3.434 ± 0.13
x1 = 0.15	11.35 ± 0.3	9.112 ± 0.25	7.428 ± 0.21	6.13 ± 0.18	5.123 ± 0.16
x1 = 0.2	15.8 ± 0.39	12.47 ± 0.32	10.01 ± 0.26	8.116 ± 0.22	6.674 ± 0.19
x1 = 0.3013	25.17 ± 0.58	19.3 ± 0.46	15.07 ± 0.36	11.97 ± 0.29	9.604 ± 0.25
x1 = 0.3988	32.99 ± 0.71	24.94 ± 0.57	19.22 ± 0.43	15.07 ± 0.34	11.96 ± 0.29
x1 = 0.4994	39.06 ± 0.79	29.14 ± 0.63	22.33 ± 0.47	17.44 ± 0.37	13.76 ± 0.31
x1 = 0.6027	42.39 ± 0.81	31.62 ± 0.64	24.2 ± 0.48	18.83 ± 0.38	14.84 ± 0.31
x1 = 0.7058	43.85 ± 0.78	32.83 ± 0.62	25.16 ± 0.47	19.65 ± 0.37	15.51 ± 0.31
x1 = 0.8009	43.72 ± 0.73	32.88 ± 0.59	25.37 ± 0.44	19.83 ± 0.35	15.71 ± 0.29
x1 = 0.899	42.96 ± 0.66	32.66 ± 0.54	25.3 ± 0.41	19.86 ± 0.32	15.82 ± 0.27

O=[N+]([O-])[O-].O=[N+]([O-])[O-].[Ni+2] + O
Settings	viscosity [mPa·s]
[1], 322.46 K, 100 kPa, x1 = 0.03889	1.225 ± 0.023

[Cs+].[I-] + O
[1], 310.15 K, 101 kPa
Settings	viscosity [mPa·s]
x1 = 0.000182	0.6958 ± 0.0061
x1 = 0.000913	0.6971 ± 0.0062
x1 = 0.001829	0.6934 ± 0.0062
x1 = 0.002695	0.6844 ± 0.0062
x1 = 0.003679	0.6676 ± 0.0062
x1 = 0.005197	0.6281 ± 0.006
x1 = 0.005988	0.6009 ± 0.0058

Nc1cccc(Cl)c1 + O=C1CCCCC1
viscosity [mPa·s], [1], 100 kPa
Settings	x1 = 0.0814	x1 = 0.1705	x1 = 0.2826	x1 = 0.3886	x1 = 0.4996	x1 = 0.5895	x1 = 0.6899	x1 = 0.7755	x1 = 0.8882
303.15 K	1.954 ± 0.1	2.11 ± 0.1	2.323 ± 0.1	2.542 ± 0.1	2.793 ± 0.1	3.014 ± 0.1	3.28 ± 0.1	3.525 ± 0.1	3.875 ± 0.1
308.15 K	1.779 ± 0.1	1.92 ± 0.1	2.112 ± 0.1	2.31 ± 0.1	2.535 ± 0.1	2.733 ± 0.1	2.971 ± 0.1	3.191 ± 0.1	3.503 ± 0.1
313.15 K	1.589 ± 0.1	1.716 ± 0.1	1.888 ± 0.1	2.065 ± 0.1	2.266 ± 0.1	2.442 ± 0.1	2.655 ± 0.1	2.85 ± 0.1	3.128 ± 0.1
318.15 K	1.382 ± 0.1	1.495 ± 0.1	1.648 ± 0.1	1.805 ± 0.1	1.984 ± 0.1	2.141 ± 0.1	2.33 ± 0.1	2.505 ± 0.1	2.753 ± 0.1
